# Laboratory results taken from US6638953B2, “Indole derivatives as 5-HT receptor antagonist” (SmithKline Beecham p.l.c., priority 1995, dated 2003).
# Where a name gives a salt, the structure may show the parent alone.
row,SMILES,melting point
1,Cc1ncccc1Oc1ccc(NC(=O)N2CCc3cc(Br)c(C(F)(F)F)cc32)cn1,211 to 213 °C
2,"CSc1cc2c(cc1C(F)(F)F)N(C(=O)Nc1cc(F)cc(-c3cccnc3)c1)CC2 (as salt: hydrochloride) [Example 25, 1-(3-Fluoro-5-(pyrid-3-yl)phenylcarbamoyl)5-thiomethyl-6-trifluoromethyl-indoline Hydrochloride]",202 to 203 °C
3,"COc1cc2c(cc1C(F)(F)F)N(C(=O)Nc1ccc(-c3cccnc3)cc1)CC2 [Example 4, 1-[(3-Pyridyl)-4-phenyl Carbamoyl]-5-methoxy-6-trifluoromethylindoline]",> 230 °C
4,"COc1cc2c(cc1C(F)(F)F)N(C(=O)Nc1ccc(-c3ccncc3)cc1)CC2 [Example 5, 1-[(4-Pyridyl)-4-phenyl Carbamoyl]-5-methoxy-6-trifluoromethyl Indoline]",> 210 °C
5,"COc1cc2c(cc1C(F)(F)F)N(C(=O)Nc1cc(-c3cccnc3)ccc1F)CC2 [Example 9, 1-[2-Fluoro-5-(3-pyridyl) Phenyl Carbamoyl]-5-methoxy-6-trifluoromethyl Indoline]",233 °C (dec.)
6,"CSc1cc2c(cc1C(F)(F)F)N(C(=O)Nc1cncc(-c3ccccc3)c1)CC2 [Example 11, 1-(5-Phenyl Pyrid-3-yl Carbamoyl)-5-methylthio-6-trifluoromethyl Indoline]",208 to 214 °C
7,"COc1cc2c(cc1C(F)(F)F)N(C(=O)Nc1cncc(-c3cccnc3)c1)CC2 [Example 12, 1-[5-(3-Pyridyl)-pyrid-3-yl Carbamoyl]-5-methoxy-6-trifluoromethyl Indoline]",113 to 114 °C
8,"COc1cc2c(cc1C(F)(F)F)N(C(=O)Nc1cncc(-c3ccc(C(F)(F)F)cc3)c1)CC2 [Example 13, 1-[5-(4-Trifluoromethylphenyl)-pyrid-3-yl Carbamoyl]-5-methoxy-6-trifluoromethyl Indoline]",199 to 202 °C
9,"COc1cc2c(cc1C(F)(F)F)N(C(=O)Nc1cncc(-c3ccc(C)cc3)c1)CC2 [Example 14, 1-[5-(4-Methylphenyl)-pyrid-3-yl Carbamoyl]-5-methoxy-6-trifluoromethyl Indoline]",190 to 191 °C
10,"COc1cc2c(cc1C(F)(F)F)N(C(=O)Nc1cncc(-c3cccs3)c1)CC2 [Example 15, 1-[5-(2-Thienyl)-pyrid-3-yl Carbamoyl]-5-methoxy-6-trifluoromethyl Indoline]",193 to 208 °C
11,"COc1cc2c(cc1C(F)(F)F)N(C(=O)Nc1cncc(-c3ccsc3)c1)CC2 [Example 16, 1-[5-(3-Thienyl)-pyrid-3-yl Carbamoyl]-5-methoxy-6-trifluoromethyl Indoline]",165 to 167 °C
12,"COc1cc2c(cc1C(F)(F)F)N(C(=O)Nc1cncc(-c3ccc[nH]3)c1)CC2 [Example 17, 1-[5-(2-Pyrrolyl)-pyrid-3-yl Carbamoyl]-5-methoxy-6-trifluoromethyl Indoline]",218 to 219 °C
13,"COc1cc2c(cc1C(F)(F)F)N(C(=O)Nc1cncc(-c3ccncc3)c1)CC2 [Example 18, 1-[5-(4-Pyridyl)-pyrid-3-yl Carbamoyl]-5-methoxy-6-trifluoromethyl Indoline]",230 to 234 °C
14,"COc1cc2c(cc1C(F)(F)F)N(C(=O)Nc1cncc(-c3c(F)cccc3F)c1)CC2 [Example 22, 1-(5-(2,6-Difluorophenyl)-3-pyridylcarbamoyl)-5-methoxy-6-trifluoromethylindoline]",217 to 219 °C
15,"Cc1cc2c(cc1Cl)N(C(=O)Nc1ccc(C)c(-c3cccnc3)c1)CC2 [Example 23, 6-Chloro-5-methyl-1-(4-methyl-3-(pyrid-3-yl)-phenylcarbamoyl) Indoline]",202 to 203 °C
16,"COc1cc2c(cc1C(F)(F)F)N(C(=O)Nc1cccc(-c3noc(C)n3)c1)CC2 [Example 27, 5-Methoxy-1-(5-methyl-(1,2-4-oxadiazol-3-yl)-phenylcarbamoyl)-6-trifluoromethyl Indoline]",203 to 204 °C
17,"COc1cc2c(cc1C(F)(F)F)N(C(=O)Nc1cc(Br)c(C)c(-c3cccnc3)c1)CC2 [Example 33, 1-[3-Bromo-4-methyl-5-(3-pyridyl)phenylcarbamoyl]-5-methoxy-6-trifluoromethylindoline]",216 to 218 °C
18,"COc1cc2c(cc1C(F)(F)F)N(C(=O)Nc1cccc(-c3cncc4ccccc34)c1)CC2 [Example 34, 1-[3-(4-Isoquinolyl)phenylcarbamoyl]-5-methoxy-6-trifluoromethyl Indoline]",211 to 215 °C
19,"COc1cc2c(cc1C(F)(F)F)N(C(=O)Nc1ccc(-c3cccnc3)nc1)CC2 [Example 36, 1-[6-(3-Pyridyl)-pyrid-3-ylcarbamoyl]-5-methoxy-6-trifluoromethylindoline]",> 270 °C
20,"COc1cc2c(cc1C(F)(F)F)N(C(=O)Nc1ccc3c(ccn3-c3ccncc3)c1)CC2 [Example 59, 1-(1-(4-Pyridyl)-5-indolylcarbamoyl)-5-methoxy-6-trifluoromethylindoline]",206 to 211 °C
21,"COc1cc2c(cc1C(F)(F)F)N(C(=O)Nc1ccc(CSc3ccncc3)cc1)CC2 [Example 60, 5-Methoxy-6-trifluoromethyl-1-[4-(pyridin-4-ylthiomethyl)phenyl Carbamoyl]indoline]",174 to 175 °C
22,"COc1cc2c(cc1C(F)(F)F)N(C(=O)Nc1ccc(SCc3ccncc3)cc1)CC2 [Example 62, 5-Methoxy-6-trifluoromethyl-1-[4-(pyridin-4-ylmethylthio)phenyl Carbamoyl]indoline]",160 to 163 °C
23,COc1cc2c(cc1C(F)(F)F)N(C(=O)Nc1ccnc(Oc3cccnc3)c1)CC2 [Example 64],223 to 225 °C
24,"CSc1cc2c(cc1C(F)(F)F)N(C(=O)Nc1ccc(Oc3ccc(C)nc3)nc1)CC2 [Example 66, 5-Methylthio-6-trifluoromethyl-1-[6-(6-methylpyridin-3-yloxy)pyridin-3-ylcarbamoyl]indoline]",206 to 208 °C
25,"COc1cc2c(cc1C(F)(F)F)N(C(=O)Nc1ccc(Sc3cccnc3)nc1)CC2 [Example 67, 5-Methoxy-6-trifluoromethyl-1-[6-(pyridin-3-ylthio)pyridin-3-ylcarbamoyl]indoline]",208 to 210 °C
26,"CSc1cc2c(cc1C(F)(F)F)N(C(=O)Nc1ccc(C(=O)NCc3cccnc3)cc1)CC2 [Example 68, 5-Methylthio-6-trifluoromethyl-1-[4-(pyrid-3-ylmethyl)amido Phenyl Carbamoyl]indoline]",> 250 °C
27,"COc1cc2c(cc1C(F)(F)F)N(C(=O)Nc1ccc3c(ccn3Cc3cccnc3)c1)CC2 [Example 71, 1-(1-(3-Pyridylmethyl)-5-indolylcarbamoyl)-5-methoxy-6-trifluoromethylindoline]",243 to 246 °C

# Further lines, results first:
row,melting point,SMILES
1,215 to 218 °C,"COc1cc2c(cc1C(F)(F)F)N(C(=O)Nc1ccc3c(ccn3Cc3ccncc3)c1)CC2 [Example 72, 1-(1-(4-Pyridylmethyl)-5-indolylcarbamoyl)-5-methoxy-6-trifluoromethylindoline]"
2,202 to 204 °C,"COc1cc2c(cc1C(F)(F)F)N(C(=O)Nc1ccc3c(ccn3-c3cccnc3)c1)CC2 [Example 73, 1-(1-(3-Pyridyl)-5-indolylcarbamoyl)-5-methoxy-6-trifluoromethyl Indoline]"
3,188 to 191 °C,"COc1cc2c(cc1C(F)(F)F)N(C(=O)Nc1ccc(Oc3cnccc3C)nc1)CC2 [Example 82, 5-Methoxy-6-trifluoromethyl-1-[6-(4-methylpyridin-3-yloxy)pyridin-3-ylcarbamoyl]indoline]"
4,192 to 193 °C,COc1cc2c(cc1C(F)(F)F)N(C(=O)Nc1cccc(-c3cccnc3)c1)CC2 [Example 83]
5,196 to 197 °C,COc1cc2c(cc1C(F)(F)F)N(C(=O)Nc1cccc(-c3cccnc3)c1OC)CC2 [Example 84]
6,214 to 216 °C,COc1cc2c(cc1C(F)(F)F)N(C(=O)Nc1cccc(-c3cccnc3)c1Cl)CC2 [Example 85]
7,240 °C (dec.),COc1cc2c(cc1C(F)(F)F)N(C(=O)Nc1cccc(-c3cnc4ccccc4c3)c1)CC2 [Example 86]
8,> 200 °C,COc1cc2c(cc1C(F)(F)F)N(C(=O)Nc1cncc(-c3ccc(F)cc3)c1)CC2 [Example 87]
9,226 to 229 °C,COc1cc2c(cc1C(F)(F)F)N(C(=O)Nc1cncc(-c3cc(F)cc(F)c3)c1)CC2 [Example 88]
10,198 to 199 °C,COc1cc2c(cc1C(F)(F)F)N(C(=O)Nc1cncc(-c3ccc(Cl)cc3)c1)CC2 [Example 89]
11,103 to 105 °C,COc1cc2c(cc1C(F)(F)F)N(C(=O)Nc1cncc(-c3ccccc3C)c1)CC2 [Example 90]
12,114 to 116 °C,COc1cc2c(cc1C(F)(F)F)N(C(=O)Nc1cncc(-c3ccccc3C=O)c1)CC2 [Example 91]
13,190 to 192 °C,COc1cc2c(cc1C(F)(F)F)N(C(=O)Nc1cncc(-c3ccccc3CO)c1)CC2 [Example 92]
14,113 to 115 °C,COc1cc2c(cc1C(F)(F)F)N(C(=O)Nc1cncc(-c3ccc(F)c(Cl)c3)c1)CC2 [Example 93]
15,204 to 207 °C,COc1cc2c(cc1C(F)(F)F)N(C(=O)Nc1ccc(-c3ccccc3)nc1)CC2 [Example 94]
16,> 225 °C,COc1cc2c(cc1C(F)(F)F)N(C(=O)Nc1ccc(-c3cccnc3)cn1)CC2 [Example 95]
17,> 225 °C,COc1cc2c(cc1C(F)(F)F)N(C(=O)Nc1ccc(-n3cccn3)nc1)CC2 [Example 96]
18,213 to 215 °C,COc1cc2c(cc1C(F)(F)F)N(C(=O)Nc1cccc(-c3ccc(N(C)C)cc3)c1)CC2 [Example 97]
19,209 to 211 °C,COc1cc2c(cc1C(F)(F)F)N(C(=O)Nc1cccc(-c3ccc(CN(C)C)cc3)c1)CC2 [Example 98]
20,185 to 187 °C,COc1cc2c(cc1C(F)(F)F)N(C(=O)Nc1cccc(-c3cccc(CN(C)C)c3)c1)CC2 [Example 99]
21,154 to 155 °C,COc1cc2c(cc1C(F)(F)F)N(C(=O)Nc1cccc(-c3noc(CN(C)C)n3)c1)CC2 [Example 100]
22,> 240 °C,COc1cc2c(cc1C(F)(F)F)N(C(=O)Nc1cccc(-c3ccc[nH]3)c1)CC2 [Example 102]
